Results from patent US20230165978A1, “Composition and A Method For Diagnosing And Treating Bacterial Infection” (Hong Kong Centre for Cerebro-Cardiovascular Health …, priority 2021, published 2023).
pIC50: −log10 of the molar value. Where two headings read alike, the source gives them in different places.

What was measured:
UMUC-3 cell lines = assay: Drug treatments of cancer cell clusters in 3D model with bacteria outside tissue; cell viability test (Hoechst/Calcein-AM); assay type: cell-based; conditions: Homo sapiens, UMUC3, 24 h; for pIC50: 3D model with bacteria outside tissue, 24 hrs of incubation, read-out: IC50 of doxorubicin for cancer cells
Method: 70% (v/v) ethanol (EtOH; UNI-CHEM) was added to channels to sterilize the platform and remove air bubbles. 1× phosphate-buffered saline (PBS; Gibco, #10010049, USA) was used to remove residual EtOH, and the microwell layer was then coated with 50 μL of 2.5% bovine serum albumin (v/v) (BSA) (Sigma-Aldrich, #A9418-5G, Germany) to prevent cell adhesion to the channels. The capacity of each channel was 150 μL. UMUC-3 cell clusters in the microchannels could be stained in situ with Hoechst dye (Invitrogen, #H1399, USA) for 30 min to visualize cell nuclei or biofilm. Imaging and downstream analysis were carried out in situ after 1 h, 9 h, and 24 h of infection. UMUC-3 cell clusters without bacteria were used as negative controls. The bacterial suspension was centrifuged for 10,000 rpm. LB supernatant was removed and replaced with antibiotic-free MEM a (10% supplemented with FBS) at the required multiplicity of infection (MOI) rates (500:1 or 1:1). Control groups corresponding to 0 h time points were obtained before the introduction of bacteria.
Nuclear dye Hoechst (blue) and Calcein-AM (green) Invitrogen, #C3100MP, USA) were added to the channels at a final concentration of 20 μM. Clusters were imaged after 30 min incubation at 37° C. Using ImageJ for analysis. We enumerated only cancer cells within the area range of 25-250 μm^2 and circularity 0.3-1.0 to ensure that smaller bacteria were excluded from the count.
UMUC-3 cells were seeded into a PIEB device at 35×10^3 cells/channel concentration and cultured at 37° C. overnight. Then UPEC was suspended in PBS and added into each channel at the MOI of 1:1. Then the bacteria and cells were incubated at 37° C. for 1 h in the device. TBPP was added into the channel and followed by light treatment for 30 mins. The medium was replaced by fresh RPMI with DOX (Sigma-Aldrich, #D1515-10MG, 25316-40-9, China). After 24 h incubation, cells were dyed with Hoechst and Calcein AM for imaging.

UPEC = assay: Fluorescent imaging of bacteria by TBPP; assay type: cell-based, uropathogenic E. coli (UPEC) strain UTI89
Method: A single colony of UPEC on solid culture medium was transferred to 5 mL of Luria-Bertani (LB) medium and incubated at 37° C. for overnight. After reaching the logarithmic phase, bacteria were harvested by centrifuging at 10000 g for 3 min. After removing the supernatant, bacteria were diluted in ABTGC (ABT minimal medium supplemented with […]) to 1×10^5/mL. 300 μL of bacteria solution were added to the culture dish. Then, 300 μL dye solution in saline at appropriate concentration was added into the culture dish for 1 h and directly imaged by Leica TCS SP8 MP confocal microscope (Germany).

[1] = ROS generation test with DCFH-DA under white light; conditions: photosensitizer 10 μM, DCFH-DA 40 μM
Method: Dichlorodihydrofluorescein diacetate (DCFH-DA, Sigma-Aldrich #D6665-5G, 76-54-0, China) was used as the ROS indicator. 40 μL of DCFH-DA stock solution (1 mM) was added into 2 mL of different photosensitizers suspension (10 μM) including TBPPs and chlorin e6 (Sigma-Aldrich #COM448659756-100MG, QC-6466, USA). Then white light ([…]) was used to irradiate, and the emission of DCFD-DA at 525 nm was recorded at various irradiation times.

[2] = tested on: human bladder carcinoma cell line (UMUC-3); assay: Cancer cell staining by TBPP; assay type: cell-based; conditions: TBPP 1 μM
Method: The human bladder carcinoma cell line UMUC-3 (CRL-1749, ATCC) were cultured in modified Minimum Essential Medium Alpha (MEM a; Gibco, #12561049, USA) supplemented with 10% (v/v) fetal bovine serum (FBS; Gibco, #10270106, USA) and 1% (v/v) penicillin-streptomycin (Gibco, #15140122, USA) at 37° C. with 5% CO2 in a humidified environment. Cells were cultured in sterile T25 or T75 flasks (Jet BIOFIL, China), with growth media replaced every 48 h. Cultures were passaged at 80% confluence.
[…] of TBPP and 10 μM of Calcein-AM were added to the channels. Clusters were then imaged after 60 min incubation at 37° C. Z-stack were recorded via confocal microscope.

[3] = Photophysical properties (absorption and photoluminescence spectra); assay type: physicochemical
Method: All chemicals and reagents were commercially available and used as received without further purification. ^1H and ^13C NMR spectra were measured on a Bruker ARX 400 NMR spectrometer using CDCl3 and DMSO-d6 as solvents, and tetramethylsilane (TMS; 6=0 ppm) was chosen as the internal reference. High-resolution mass spectra (HRMS) were obtained on a Finnigan MAT TSQ 7000 mass spectrometer system operated in a matrix-assisted laser desorption and ionization-time-of-flight (MALDI-TOF) mode. Absorption spectra were measured on a Milton Roy Spectronic 3000 array spectrophotometer. Steady-state photoluminescence (PL) spectra were measured on a PerkinElmer spectrofluorometer LS 55.

Row | Structure (SMILES) | viability at 5 µM (UMUC-3 cell lines; read-out: viability of cancer cells) [%] | fluorescent signal of UPEC biofilm (UPEC; TBPP 1 μM, biofilm compared with planktonic bacteria) | NIR fluorescent signal on UPEC (monolayer model) (UPEC; TBPP 10 μM, 1 h to 24 h) | ROS generation (change of DCFH-DA fluorescence I/I0 with irradiation time) [1] | fluorescence in cancer cell staining [2] | Stokes shift (Δv) [3] [nm] | absorption maximum ([3]; in DMSO, 10 μM) [nm] | emission maximum ([3]; in DMSO, 10 μM) [nm] | pIC50 (UMUC-3 cell lines; doxorubicin alone) | pIC50 (UMUC-3 cell lines; doxorubicin combined with TBPP)
1 | C[N+](C)(C)CCC[n+]1ccc(-c2ccc(-c3ccc(N(c4ccccc4)c4ccccc4)cc3)c3nsnc23)cc1.[Br-].[Br-] [TBPP, 4-(7-(4-(diphenylamino)phenyl)benzo[c][1,2,5]thiadiazol-4-yl)-1-(3-(trimethylammonio)propyl)pyridin-1-ium bromide] | ~60 | much higher signal than the planktonic bacteria | targeting ability to UPEC | much greater change than commercial photosensitizer, Ce6 | negligible fluorescence | 198 | 492 | 690 | – | –
2 | COc1cccc2c1C(=O)c1c(O)c3c(c(O)c1C2=O)C[C@@](O)(C(=O)CO)C[C@@H]3O[C@H]1C[C@H](N)[C@H](O)[C@H](C)O1 [doxorubicin] | – | – | – | – | – | – | – | – | 5.10 | 5.30
